From ChEMBL document CHEMBL3507680, “University of Dundee, Gates Library screen for HepG2 cell viability”
“And” between values parts separate entries of the source, which are not always exact repeats. Identical values can stand only once.

Test: Human HepG2 cell viability assay in 384 well format
Assay type: toxicity, cell-based
Design: dose 125 nL, time 70.5 hour; concentration not given beside the values
Conditions: HepG2 cells, read-out: Inhibition

Structure (SMILES)	cytotoxicity at 70.5 h
CCn1cc(CN(C)S(=O)(=O)c2ccc(Cl)cc2)cn1	108%
CCCc1cc(=O)[nH]c(-n2nc(C3CC3)cc2N)n1	65.9%
CCc1ncc2c(n1)CN(Cc1ncc(C(C)(C)C)o1)CC2	60.9%
O=C(CN1CCc2sccc2C1)Nc1ccnc2ccnn12	74.2%
COc1ccc(C)cc1CN1CCC(c2cc3ncccc3cn2)CC1.Cl	105%
Oc1cc(C2CCCN(Cc3cccs3)C2)nc(-c2ccccn2)n1 (stereo not drawn)	60.4%
O=C(Nc1nccs1)c1csc(NC2CCCC2)n1	62%
Cc1cnc(Nc2cccc(C3CCCN3Cc3cn(C)nc3C)n2)s1 (stereo not drawn)	76%
Cl.Cn1ccnc1N1CCN(C(=O)Cc2ccc(F)cc2)CC1	75%
CNc1nc(C)cc(NCc2cc(C)cc3c(C)c(C)[nH]c23)n1	98.8%
O=C(c1ccc2[nH]nnc2c1)N1CCC(Nc2cccnn2)CC1	10.7%
COc1ccccc1CNC(=O)CNc1ccccc1C(C)=O	-1.58%
COCCCNC(=O)C1(NC(=O)c2ccc3[nH]ncc3c2)CCCC1	-15.2%
CN1CCC(N(C)C[C@H]2CC[C@@H](Cc3ccc4occc4c3)O2)CC1	3.05%
CN(C)CCN1C(=O)CCC12CCN(Cc1cccs1)CC2	-11.7%
CC(c1ccccc1)N(C)C(=O)CN1CCN(c2cnccn2)CC1 (stereo not drawn)	-16.2%
Cc1n[nH]c(C(=O)N2CCCC(C)CC2)c1Br (stereo not drawn)	-5.15%
CCc1cc(N2C[C@H](C3CC3)[C@@H](N)C2)nc(N2CCOCC2)n1	-5.91%
CC(=O)NC1CCCN(c2nc3ccccc3cc2CO)C1 (stereo not drawn)	2.9%
CN1C(=O)C2(CCN(C(=O)C3CCOCC3)CC2)c2ccccc21	-3.31%
CCn1nc2c(cc1=O)CN(Cc1nnc(C3CC3)o1)CC2	2.46%
CCN(CC)C1(Cc2cc(CC(C)C)on2)COC1	0.19%
O=C([C@@H]1CSCN1)N1CC2(CCNCC2)c2cc(Cl)ccc21	-3.25%
CN(C)c1cccc(C(=O)N2CCCSCC2CN2CCCC2)c1 (stereo not drawn)	3.97%
c1cncc(CN2CC[C@H]3O[C@@H](COCC4CC4)CC[C@H]32)c1	-5.15%

Structure (SMILES)	cytotoxicity at 70.5 h
Cc1nc(CC(=O)NCCN2CCC(c3ccccc3C)C2)cs1 (stereo not drawn)	-8.35%
COc1ncccc1NC(=O)NC(C)(C)c1ncc(C)s1	16.5%
CC(C)OCCC(=O)NCC(O)c1c(F)cccc1F (stereo not drawn)	-6.84%
COCC(=O)NCc1ccc(-c2ccccc2C(=O)O)cn1	-3.58%
CCN1C(=O)CC[C@@H]2[C@H]1CCN2S(=O)(=O)Cc1ccc(C)cc1	-0.603%
O=C(c1ccccn1)N1CCc2nc(-c3cnccn3)nc(O)c2C1	-3.62%
CCC[C@@H]1CN(Cc2ccccc2SC)C[C@H]1NC(C)=O	-5.44%
CCN(CC)S(=O)(=O)N1CCC(c2nccn2Cc2ccccn2)CC1	12.4%
COc1ccc(C)cc1S(=O)(=O)NCCC(O)c1ccccc1 (stereo not drawn)	-10.5%
COCCNc1ncc(-c2cc(C)no2)c(-c2ccco2)n1	8.77%
COc1cc(F)c(S(=O)(=O)N2c3ncccc3NC(=O)C2C)cc1OC (stereo not drawn)	-5.44%
CCN(C)C(C(=O)Nc1ccc2c(c1)CCC(=O)N2)c1ccccc1 (stereo not drawn)	-15.5%
CCCNC(=O)Nc1ncc(-c2cccnc2)s1	-9.71%
O=C(NCCc1nnc2n1CCC2)N1CCC2(CCCCC2)C1	-0.937%
Cc1cc2occ(CC(=O)N3CCC(O)(CN(C)C)C3)c2cc1Cl (stereo not drawn)	-5.39%
CCN(CC1CCOC1)C(=O)c1cc(F)ccc1N1CCN(C)CC1 (stereo not drawn)	46%
CN(Cc1cnccn1)CC1CCOc2ccccc2C1 (stereo not drawn)	-12.2%
O=C(c1ccc(CN2CCCCC2)cc1)N1CCCC1c1cccs1 (stereo not drawn)	-0.233%
O=C(COCc1ccccc1Cl)N1CCN(c2ccc(Br)cn2)CC1	-4.89%
CC1CN(C(=O)CN(Cc2ccccc2Cl)C2CCCC2)CCO1 (stereo not drawn)	6.53%
O=C(c1ccncc1)N1CCCn2c(CN3CCCCC3)nnc2C1	-8.6%
COC(=O)C1CCN(C(=O)CN2CCN(c3cccc(C)c3)CC2)CC1	-8.14%
OCC(O)CN1CCc2onc(-c3ccc(C(F)(F)F)cc3)c2C1 (stereo not drawn)	-8.17%
COc1cccc(C(=O)NCc2ccccc2S(=O)(=O)N(C)C)c1	-4.93%
CS(=O)(=O)N[C@@H]1CN(Cc2ccccc2)C[C@H]1O	-5.89%

Structure (SMILES)	cytotoxicity at 70.5 h
Cc1cc(C)nc(Nc2cccc(C3CCCN(CCO)C3)n2)n1 (stereo not drawn)	-4.13%
COCC(=O)N1CC[C@@H]2O[C@H](COCc3csc(C)n3)CC[C@@H]21	-4.59%
Cc1cc(C(F)(F)F)n2nc(C3CCCN(S(C)(=O)=O)C3)cc2n1 (stereo not drawn)	-2.03%
CCn1nc(C)c2nnn(CC(=O)Nc3ccccc3F)c(=O)c21	-4.52%
O=C(C1=CCCC1)N1C[C@@H]2COC[C@]2(COCc2ccncc2)C1	-3.75%
Cc1nccc([C@@H]2C[C@@H]3CCN(S(=O)(=O)N(C)C)C[C@H]3O2)n1	1.05%
O=C(c1cncc(NCC2COc3ccccc3C2)n1)N1CCCC1 (stereo not drawn)	14.9%
O=C(COc1ccc2cccnc2c1)N1CCN[C@H]2CS(=O)(=O)C[C@H]21	18.5%
CCNC(=O)Cc1c(C)nc2c(c1C)c(=O)[nH]n2C	-5.26%
CC(C)NC(=O)CCNC(=O)Nc1cccc(-c2nccn2C)c1	-2.81%
CCN(C)c1ncnc2c1CCN(C(=O)c1ccsc1)CC2	-0.977%
CC(C)COCC(NC(=O)c1cnccn1)c1ccco1 (stereo not drawn)	-10.5%
CSc1ccc(OCCN2CCC(n3cncn3)CC2)cc1	-13.7%
COCC(=O)NCCc1nc2cc(-c3ccc(OC)cc3)ncn2n1	-5.33%
CC(=O)c1cccc(OCCCC(=O)N(C)Cc2cnn(C)c2)c1	9.09%
CC(=O)N[C@@H](CC(C)C)C(=O)N1CCC(n2cc(CC(C)C)nn2)CC1	6.61%
Cc1ccc(C(=O)N2CCCN(C)c3ccc(F)cc32)o1	-17.9%
O=C1NCC2(CCCN(C(=O)Cn3nc4ccccc4n3)CC2)O1 (stereo not drawn)	29.9%
CN(C)Cc1nc(-n2cnc(C(=O)NC3CCCC3)c2)n2ccccc12	-3.17%
C[C@@H]1CN(C(=O)c2nc3ccc(Cl)cn3c2-c2ncc[nH]2)C[C@H](C)O1	-14.7%
CCOc1ccc(S(=O)(=O)Nc2cnc(OC)nc2OC)cc1	9.83%
Fc1ccc(Cc2cnc(C3CCCN3)cn2)cc1 (stereo not drawn)	16.8%
CC1CN(Cc2cccc(C#N)c2)CCN1c1ccc2nncn2n1 (stereo not drawn)	-5.84%
O=C(c1cc(C2CC2)on1)N1CCCC(n2cncn2)C1 (stereo not drawn)	30.6%
CN(C)c1ccnc(-c2ccnc3c2ccn3C)n1	-5.41%

Structure (SMILES)	cytotoxicity at 70.5 h
Cc1nc(CC(=O)N(C)C2CCCN(CCc3ccccc3)C2)cs1 (stereo not drawn)	-4.36%
CCN1CC(c2ccccc2)CC2(CCN(Cc3ncc[nH]3)CC2)C1 (stereo not drawn)	-9.77%
Cc1cnn(CCNCc2c(C)nn(C)c2Cl)c1	-4.35%
COCCNc1ccc(CC2CCCN(C3CCCC3)C2)nn1 (stereo not drawn)	-4.76%
COCCn1ccnc1CN(Cc1ccccn1)CC(C)C	-6.56%
c1cc(CN2CC[C@H]3C[C@H](c4nc(C5CC5)cs4)O[C@@H]3C2)ccn1	-7.31%
CCN(CCNCc1ccc(C#N)cc1)C1CC1	-6.58%
NCCn1cc(C(=O)N2CCCCCC2c2cccc(F)c2)nn1 (stereo not drawn)	13.5%
Cc1cnc(N2C[C@@H]3CCN(CC4CC4)C(=O)[C@H]3C2)nc1	-4.98%
CCCNC(=O)CSc1nnc2[nH]c(=O)c3c(n12)CCCC3	12.2%
CC(C)N1CCC(C(=O)N(C)C(C)c2ccon2)CC1 (stereo not drawn)	-0.598%
CC(C)CS(=O)(=O)Nc1ccc2c(c1)OCC(C)(C)C(=O)N2C	50.7%
O=C1CCC(CCC(=O)N2CCC2c2cccs2)=NN1 (stereo not drawn)	-13.3%
CCC(CC)(CC(=O)OC)NC(=O)Nc1nnc(-c2ccccn2)s1	9.93%
Cn1nc(CNC(=O)c2ccc3nsnc3c2)c2c1CCOC2	-4.6%
O=C(O)[C@]12CN(CC3CCC3)C[C@H]1CN(c1cnccn1)C2	-4.33%
Cc1cc(F)ccc1OC1(C(=O)O)CCN(Cc2c[nH]cn2)CC1	-4.85%
Cc1nn(C)c(C)c1C1COCCN1c1ncnc2c(C)cccc12 (stereo not drawn)	-6.31%
CC(NC(=O)NCC1(N2CCCCC2)CCCCC1)c1nncn1C (stereo not drawn)	-20.6%
Cc1cnc2n(c1=O)C(CC(=O)NCc1ccc(Cl)cc1)CS2 (stereo not drawn)	-5.3%
CC(C)(C)NC(=O)C1CSCN1S(=O)(=O)c1ccc(F)cc1 (stereo not drawn)	-1.49%
Cc1ccccc1CN(C)Cc1nc2c(cnn2C)c(=O)[nH]1	-7.81%
O=C(C1CCOc2ccccc21)N1CCOc2ccc(F)cc21 (stereo not drawn)	-9.88%

Test: Human HepG2 cell viability dose-response assay
Assay type: toxicity, cell-based
Conditions: not given

Structure (SMILES)	BOTTOM	HILLSLOPE	TOP	pXC50
CCn1cc(CN(C)S(=O)(=O)c2ccc(Cl)cc2)cn1	0	0	0	< 4.53
CCCc1cc(=O)[nH]c(-n2nc(C3CC3)cc2N)n1	0	0	0	< 4.53
CCc1ncc2c(n1)CN(Cc1ncc(C(C)(C)C)o1)CC2	0	0	0	< 4.53
O=C(CN1CCc2sccc2C1)Nc1ccnc2ccnn12	-24.28 and -16.58	0.9799 and 1.026	100	5.87 and 5.888
COc1ccc(C)cc1CN1CCC(c2cc3ncccc3cn2)CC1.Cl	-3.004 and -4.306	10.96 and 6.205	101.8 and 102.1	5.072 and 5.187
Oc1cc(C2CCCN(Cc3cccs3)C2)nc(-c2ccccn2)n1 (stereo not drawn)	-7.306 and -6.343	1.489 and 1.356	100	4.83 and 4.808
O=C(Nc1nccs1)c1csc(NC2CCCC2)n1	-10.16 and -7.056	0.9548 and 1.411	100	4.822 and 4.869
Cc1cnc(Nc2cccc(C3CCCN3Cc3cn(C)nc3C)n2)s1 (stereo not drawn)	-7.108 and -9.894	1.821 and 1.15	87.64 and 100	5.777 and 5.662
Cl.Cn1ccnc1N1CCN(C(=O)Cc2ccc(F)cc2)CC1	0	0	0	< 4.53
CNc1nc(C)cc(NCc2cc(C)cc3c(C)c(C)[nH]c23)n1	-7.457 and -8.772	3.23 and 3.681	100 and 99.18	5.482 and 5.451
